Laboratory results published in EP4803513A1, “SUBSTITUTED QUINAZOLINE COMPOUND, PREPARATION METHOD THEREFOR, PHARMACEUTICAL COMBINATION THEREOF, AND USE THEREOF” (Hongyun Biotech Co., Ltd., priority 2023, dated 2025).

What was measured:
WT-BaF3 cells = assay: Cell antiproliferative activity assay (CCK-8), WT-BaF3 (broad-spectrum cytotoxicity); format: cell-based; details: 72 h; WT-BaF3 cells (IL-3 supplemented), CCK-8, 3 days incubation
Description: (§1) The activity of compounds against BRK kinase can be evaluated by their inhibition of the growth of the BRK kinase-stably transfected BaF3 cell line (BRK-BaF3) and wild-type BaF3 cells (WT-BaF3). […] The larger the ratio of the half-maximal growth inhibitory concentration (IC50) of a compound between WT-BaF3 and BRK-BaF3 cells, the better the selectivity of the compound.
(§2) BRK-BaF3, WT-BaF3, WEHI cell line, and breast cancer cell line T47D were cultured using RPMI 1640 Basal medium or DMEM (Dulbecco's Modified Eagle Medium) (Shanghai Peiyuan Biotechnology, L220KJ), supplemented with 10% FBS (Gibco, REF 10099-141C) and 1% P/S (Shanghai Peiyuan Biotechnology, S110JV), in an incubator (Thermo 3020) at 37°C with 5% CO2. Cell viability was above 95%. Cells were passaged at a 3:1 ratio every 3-4 days. For WT-BaF3 cells, WEHI cells were first cultured, and their culture supernatant was filtered through a 0.22 µm filter. This supernatant was added at 10% to the regular culture medium to supplement IL-3 required for WT-BaF3 cell proliferation, which served as the culture medium for WT-BaF3. For testing, cells were first collected and counted, then prepared into a cell suspension at 100,000 cells/mL and plated at 100 µL per well. Drug concentrations started from 10 µM and were serially diluted 3:1. After incubation for 3 days, 20 µL of CCK-8 detection reagent (Targetmol C005) was added to each well. After incubation for 2-4 hours, OD450 was measured using a microplate reader (Varioskan LUX, Thermo Scientific). After subtracting the blank background, the curve was fitted and the IC50 was calculated using XLfit software.

BRK-BaF3 cells = assay: Cell antiproliferative activity assay (CCK-8), BRK-BaF3; format: cell-based; details: 72 h, CCK-8, 3 days incubation
Description: as §1, §2

SMILES	IC50 (WT-BaF3 cells) [µM]	IC50 (BRK-BaF3 cells) [µM]
Cc1nn(CCO)cc1Nc1ncc2cc(-c3ccccn3)cc(C(C)C)c2n1 [I-1]	0.5 to 2.5	≤ 0.02
Cc1nn(CCO)cc1Nc1ncc2cc(-c3ncccc3F)cc(C(C)C)c2n1 [I-2]	> 2.5	≤ 0.02
Cc1cccnc1-c1cc(C(C)C)c2nc(Nc3cn(CCO)nc3C)ncc2c1 [I-3]	> 2.5	≤ 0.02
COc1cccnc1-c1cc(C(C)C)c2nc(Nc3cn(CCO)nc3C)ncc2c1 [I-4]	> 2.5	≤ 0.02
Cc1nn(CCO)cc1Nc1ncc2cc(-c3ccccn3)cc(C(F)(F)F)c2n1 [I-9]	> 2.5	≤ 0.02
Cc1nn(CCO)cc1Nc1ncc2cc(-c3ccncc3)cc(C(C)C)c2n1 [I-10]	0.5 to 2.5	0.02 to 0.1
Cc1nn(CCO)cc1Nc1ncc2cc(-c3ccncc3F)cc(C(C)C)c2n1 [I-11]	0.5 to 2.5	≤ 0.02
Cc1cnccc1-c1cc(C(C)C)c2nc(Nc3cn(CCO)nc3C)ncc2c1 [I-12]	0.5 to 2.5	≤ 0.02
COc1cnccc1-c1cc(C(C)C)c2nc(Nc3cn(CCO)nc3C)ncc2c1 [I-13]	> 2.5	≤ 0.02
Cc1cnc(F)cc1-c1cc(C(C)C)c2nc(Nc3cn(CCO)nc3C)ncc2c1 [I-17]	0.5 to 2.5	≤ 0.02
COc1ncccc1-c1cc(C(C)C)c2nc(Nc3cn(CCO)nc3C)ncc2c1 [I-25]	> 2.5	≤ 0.02
Cc1nn(CCO)cc1Nc1ncc2cc(-c3cccnc3C#N)cc(C(C)C)c2n1 [I-26]	> 2.5	≤ 0.02
Cc1nn(CCO)cc1Nc1ncc2cc(-c3cccnc3C3CC3)cc(C(C)C)c2n1 [I-28]	0.5 to 2.5	0.02 to 0.1
Cc1nn(CCO)cc1Nc1ncc2cc(-c3cnccc3F)cc(C(C)C)c2n1 [I-31]	> 2.5	≤ 0.02
COc1ccncc1-c1cc(C(C)C)c2nc(Nc3cn(CCO)nc3C)ncc2c1 [I-33]	> 2.5	≤ 0.02
Cc1nn(CCO)cc1Nc1ncc2cc(-c3cnccc3C#N)cc(C(C)C)c2n1 [I-34]	> 2.5	≤ 0.02
Cc1nn(CCO)cc1Nc1ncc2cc(-c3cc(F)cnc3F)cc(C(C)C)c2n1 [I-40]	> 2.5	≤ 0.02
Cc1nn(CCO)cc1Nc1ncc2cc(-c3cc(C#N)cnc3C)cc(C(C)C)c2n1 [I-42]	> 2.5	≤ 0.02
Cc1nn(CCO)cc1Nc1ncc2cc(-c3c(Cl)ccnc3Cl)cc(C(C)C)c2n1 [I-44]	0.5 to 2.5	≤ 0.02
Cc1nn(CCO)cc1Nc1ncc2cc(-c3c(F)ccnc3Cl)cc(C(C)C)c2n1 [I-45]	> 2.5	≤ 0.02

SMILES	IC50 (WT-BaF3 cells) [µM]	IC50 (BRK-BaF3 cells) [µM]
Cc1ccnc(C)c1-c1cc(C(C)C)c2nc(Nc3cn(CCO)nc3C)ncc2c1 [I-47]	0.5 to 2.5	≤ 0.02
Cc1nn(CCO)cc1Nc1ncc2cc(-c3c(Cl)ccnc3N)cc(C(C)C)c2n1 [I-49]	> 2.5	≤ 0.02
Cc1ccnc(N)c1-c1cc(C(C)C)c2nc(Nc3cn(CCO)nc3C)ncc2c1 [I-50]	> 2.5	≤ 0.02
Cc1ncc(F)cc1-c1cc(C(C)C)c2nc(Nc3cnn(CCO)c3)ncc2c1 [I-52]	> 2.5	≤ 0.02
Cc1ncccc1-c1cc(C(C)C)c2nc(Nc3cnn(CCO)c3C)ncc2c1 [I-66]	0.5 to 2.5	0.02 to 0.1
Cc1nn(CCO)cc1Nc1ncc2cc(-c3cccnc3)cc(C3CC3)c2n1 [I-72]	0.1 to 0.5	≤ 0.02
Cc1nn(CCO)cc1Nc1ncc2cc(-c3cc(F)cnc3C)cc(C3CC3)c2n1 [I-74]	0.5 to 2.5	≤ 0.02
Cc1nn(CCO)cc1Nc1ncc2cc(-c3cccnc3)cc(C(F)(F)F)c2n1 [I-75]	> 2.5	≤ 0.02
COC[C@@H](C)n1cc(Nc2ncc3cc(-c4cc(=O)[nH]cc4C)cc(C(C)C)c3n2)c(C)n1 [III-45]	–	≤ 0.02
COC[C@@H](C)n1ncc(Nc2ncc3cc(-c4cc(=O)[nH]cc4C)cc(C(C)C)c3n2)c1C [III-46]	–	≤ 0.02
Cc1c[nH]c(=O)cc1-c1cc(C(C)C)c2nc(Nc3cn([C@@H](C)C(=O)N(C)C)nc3C)ncc2c1 [III-48]	–	≤ 0.02
Cc1c[nH]c(=O)cc1-c1cc(C(C)C)c2nc(Nc3cnn([C@@H](C)C(=O)N(C)C)c3C)ncc2c1 [III-49]	–	0.02 to 0.1
CCN(C)CCn1cc(Nc2ncc3cc(-c4cc(=O)[nH]cc4C)cc(C(C)C)c3n2)c(C)n1 [III-51]	–	≤ 0.02
CCN(C)CCn1ncc(Nc2ncc3cc(-c4cc(=O)[nH]cc4C)cc(C(C)C)c3n2)c1C [III-52]	–	≤ 0.02
COCCN(C)CCn1cc(Nc2ncc3cc(-c4cc(=O)[nH]cc4C)cc(C(C)C)c3n2)c(C)n1 [III-54]	–	≤ 0.02
COCCN(C)CCn1ncc(Nc2ncc3cc(-c4cc(=O)[nH]cc4C)cc(C(C)C)c3n2)c1C [III-55]	–	≤ 0.02
Cc1c[nH]c(=O)cc1-c1cc(C(C)C)c2nc(Nc3cn(CCN(C)CC(C)(C)O)nc3C)ncc2c1 [III-56]	–	≤ 0.02
Cc1c[nH]c(=O)cc1-c1cc(C(C)C)c2nc(Nc3cnn(CCN(C)CC(C)(C)O)c3C)ncc2c1 [III-57]	–	≤ 0.02
Cc1c[nH]c(=O)cc1-c1cc(C(C)C)c2nc(Nc3cn(CCN4CCOC[C@@H]4C)nc3C)ncc2c1 [III-59]	–	≤ 0.02
Cc1c[nH]c(=O)cc1-c1cc(C(C)C)c2nc(Nc3cnn(CCN4CCOC[C@@H]4C)c3C)ncc2c1 [III-60]	–	≤ 0.02

SMILES	IC50 (WT-BaF3 cells) [µM]	IC50 (BRK-BaF3 cells) [µM]
Cc1c[nH]c(=O)cc1-c1cc(C(C)C)c2nc(Nc3cn(CCN4CCOC[C@H]4C)nc3C)ncc2c1 [III-61]	–	0.02 to 0.1
Cc1c[nH]c(=O)cc1-c1cc(C(C)C)c2nc(Nc3cnn(CCN4CCOC[C@H]4C)c3C)ncc2c1 [III-62]	–	≤ 0.02
Cc1c[nH]c(=O)cc1-c1cc(C(C)C)c2nc(Nc3cn(CCN4CCCC4)nc3C)ncc2c1 [III-64]	–	≤ 0.02
Cc1c[nH]c(=O)cc1-c1cc(C(C)C)c2nc(Nc3cnn(CCN4CCCC4)c3C)ncc2c1 [III-65]	–	≤ 0.02
Cc1c[nH]c(=O)cc1-c1cc(C(C)C)c2nc(Nc3cn(CC(=O)NCCF)nc3C)ncc2c1 [III-70]	–	0.02 to 0.1
Cc1c[nH]c(=O)cc1-c1cc(C(C)C)c2nc(Nc3cn(CC(=O)NCC(F)F)nc3C)ncc2c1 [III-71]	–	0.02 to 0.1
Cc1c[nH]c(=O)cc1-c1cc(C(C)C)c2nc(Nc3cn(CC(=O)NC4CCC4)nc3C)ncc2c1 [III-72]	–	0.02 to 0.1
Cc1c[nH]c(=O)cc1-c1cc(C(C)C)c2nc(Nc3cn(CC(=O)NC4CC4)nc3C)ncc2c1 [III-73]	–	0.02 to 0.1
Cc1c[nH]c(=O)cc1-c1cc(C(C)C)c2nc(Nc3cn(CC(=O)N(C)C(C)C)nc3C)ncc2c1 [III-74]	–	0.02 to 0.1
C#CCN(C)C(=O)Cn1cc(Nc2ncc3cc(-c4cc(=O)[nH]cc4C)cc(C(C)C)c3n2)c(C)n1 [III-76]	–	0.02 to 0.1
Cc1c[nH]c(=O)cc1-c1cc(C2CC2)c2nc(Nc3cn(C)nc3C)ncc2c1 [III-80]	–	≤ 0.02
Cc1c[nH]c(=O)cc1-c1cc(C2CC2)c2nc(Nc3cnn(C)c3C)ncc2c1 [III-81]	–	≤ 0.02
Cc1c[nH]c(=O)cc1-c1cc(C2CC2)c2nc(Nc3cn(C4COC4)nc3C)ncc2c1 [III-82]	–	≤ 0.02
CCc1cc(-c2cc(=O)[nH]cc2C)cc2cnc(Nc3cn(C)nc3C)nc12 [III-84]	–	0.02 to 0.1
Cc1ccc2[nH]ncc2c1-c1cc(C(C)C)c2nc(Nc3cn(C)nc3C)ncc2c1 [III-89]	–	≤ 0.02
Cc1nccnc1-c1cc(C(C)C)c2nc(Nc3cnn(C)c3C)ncc2c1 [III-100]	–	≤ 0.02
Cc1cccnc1-c1cc(C(C)C)c2nc(Nc3cn(C)nc3C)ncc2c1 [III-119]	–	≤ 0.02
Cc1nn(C)cc1Nc1ncc2cc(-c3cccnc3C(F)F)cc(C(C)C)c2n1 [III-123]	–	≤ 0.02
Cc1ccncc1-c1cc(C(C)C)c2nc(Nc3cn(C4CCN(C)CC4)nc3C)ncc2c1 [III-129]	–	≤ 0.02
Cc1ccc(C#N)cc1-c1cc(C(C)C)c2nc(Nc3cn(C4CCN(C)CC4)nc3C)ncc2c1 [III-131]	–	≤ 0.02
